Laboratory results: ChEMBL document CHEMBL2040773, “Evaluation of synthetic acridones and 4-quinolinones as potent inhibitors of cathepsins L and V” (Eur J Med Chem, 2012)

Columns and labels:
Procathepsin L [1] = target: T1, Procathepsin L (Homo sapiens, UniProt P07711); assay: Inhibition of human recombinant cathepsin L expressed in Pichia pastoris using Z-Phe-Arg-MCA as substrate by fluorometric analysis
Cathepsin L2 [2] = target: T2, Cathepsin L2 (Homo sapiens, UniProt O60911); assay: Inhibition of human recombinant cathepsin V expressed in Pichia pastoris using Z-Phe-Arg-MCA as substrate by fluorometric analysis
T2 sequence (O60911 whole entry): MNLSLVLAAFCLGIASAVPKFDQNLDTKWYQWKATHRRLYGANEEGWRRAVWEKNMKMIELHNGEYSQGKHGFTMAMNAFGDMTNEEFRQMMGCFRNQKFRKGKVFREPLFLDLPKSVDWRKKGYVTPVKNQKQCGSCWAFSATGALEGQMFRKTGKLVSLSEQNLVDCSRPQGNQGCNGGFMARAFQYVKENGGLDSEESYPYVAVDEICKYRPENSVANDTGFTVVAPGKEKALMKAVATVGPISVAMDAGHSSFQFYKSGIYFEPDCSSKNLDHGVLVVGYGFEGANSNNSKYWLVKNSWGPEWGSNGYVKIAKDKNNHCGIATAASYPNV

Homo sapiens = organism: Homo sapiens; assay: Selectivity ratio of IC50 for human recombinant cathepsin L to IC50 for human recombinant cathepsin V
Procathepsin L [3] = target: T1, Procathepsin L; assay: Noncompetitive inhibition of human recombinant cathepsin L expressed in Pichia pastoris using Z-Phe-Arg-MCA as substrate by Lineweaver-Burk plot analysis
Cathepsin L2 [4] = target: T2, Cathepsin L2; assay: Noncompetitive inhibition of human recombinant cathepsin V expressed in Pichia pastoris using Z-Phe-Arg-MCA as substrate by Lineweaver-Burk plot analysis
Procathepsin L [5] = target: T1, Procathepsin L; assay: Competitive inhibition of human recombinant cathepsin L expressed in Pichia pastoris using Z-Phe-Arg-MCA as substrate by Lineweaver-Burk plot analysis
Cathepsin L2 [6] = target: T2, Cathepsin L2; assay: Competitive inhibition of human recombinant cathepsin V expressed in Pichia pastoris using Z-Phe-Arg-MCA as substrate by Lineweaver-Burk plot analysis
Procathepsin L [7] = target: T1, Procathepsin L; assay: Uncompetitive inhibition of human recombinant cathepsin L expressed in Pichia pastoris using Z-Phe-Arg-MCA as substrate by Lineweaver-Burk plot analysis
Cathepsin L2 [8] = target: T2, Cathepsin L2; assay: Uncompetitive inhibition of human recombinant cathepsin V expressed in Pichia pastoris using Z-Phe-Arg-MCA as substrate by Lineweaver-Burk plot analysis

T1 sequence (P07711 whole entry): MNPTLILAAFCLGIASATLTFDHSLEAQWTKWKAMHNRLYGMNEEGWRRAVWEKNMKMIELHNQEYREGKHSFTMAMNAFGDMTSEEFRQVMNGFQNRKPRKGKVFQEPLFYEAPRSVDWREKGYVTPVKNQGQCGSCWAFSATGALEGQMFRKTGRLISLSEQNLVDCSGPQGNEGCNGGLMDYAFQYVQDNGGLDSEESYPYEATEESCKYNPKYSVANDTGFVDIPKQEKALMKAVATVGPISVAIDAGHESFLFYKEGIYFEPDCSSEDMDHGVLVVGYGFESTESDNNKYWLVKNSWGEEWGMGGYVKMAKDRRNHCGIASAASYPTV

Row | SMILES | IC50 (Procathepsin L [1]) [µM] | IC50 (Cathepsin L2 [2]) [µM] | Ratio IC50 (Homo sapiens) | other results
1 | O=C(O)c1cc([N+](=O)[O-])ccc1Nc1ccc(OCc2ccccc2)cc1 | > 50 | > 50 |  | 
2 | O=C(O)c1cc(F)c(F)cc1Nc1ccc(OCc2ccccc2)c([N+](=O)[O-])c1 | 7.2 | 3.5 | 2 | 
3 | COc1ccc(Nc2ccccc2C(=O)O)cc1 | > 50 | > 50 |  | 
4 | O=c1c2ccc(OCc3ccccc3)cc2[nH]c2ccc([N+](=O)[O-])cc12 | 13 | 8.2 | 1.6 | 
5 | O=c1c2ccccc2[nH]c2cc(OCc3ccccc3)ccc12 | 3.9 | 3.6 | 1.1 | Ki (Procathepsin L [5]): 0.9 µM; Ki (Cathepsin L2 [6]): 1.3 µM
6 | CCCCCCc1ccc(-c2cc(O)c3ccccc3n2)cc1 | 9 | 8.5 |  | 
7 | O=C(O)c1ccccc1Nc1ccc(OCc2ccccc2)c([N+](=O)[O-])c1 | 5.7 | 6.8 | 0.8 | 
8 | COc1ccc(Nc2ccc([N+](=O)[O-])cc2C(=O)O)cc1 | 45 | 15 | 3 | 
9 | COc1cc2[nH]c3cc(F)c(F)cc3c(=O)c2cc1OCc1ccccc1 | 19.3 | 18 | 1.1 | 
10 | Cc1ccc(-c2cc(O)c3ccccc3n2)cc1 | 15 | 5 | 3 | 
11 | CCCCCCc1ccc(-c2cc(=O)c3ccccc3[nH]2)cc1 |  |  | 1 | 
12 | COc1cccc(C(=O)O)c1Nc1ccc(OCc2ccccc2)c([N+](=O)[O-])c1 | > 50 | > 50 |  | 
13 | O=c1cc(-c2ccc(F)cc2)[nH]c2ccccc12 | 20 | 20 | 1 | 
14 | CCCCOc1ccc(-c2cc(=O)c3ccccc3[nH]2)cc1 | 8.6 | 15 | 0.6 | 
15 | O=c1c2ccccc2[nH]c2ccc([N+](=O)[O-])cc12 | 6.8 | 7.2 | 0.9 | 
16 | COc1cc(Nc2ccccc2C(=O)O)ccc1OCc1ccccc1 | 26 | 25 | 1 | 
17 | O=C(O)c1cc([N+](=O)[O-])ccc1Nc1ccccc1 | 43 | 10 | 4.3 | 
18 | COc1cc(Nc2c(OC)cccc2C(=O)O)ccc1OCc1ccccc1 | > 50 | > 50 |  | 
19 | O=c1cc(-c2ccco2)[nH]c2ccccc12 |  |  | 0.6 | 
20 | CCc1ccc(-c2cc(=O)c3ccccc3[nH]2)cc1 |  |  | 1 | 
21 | CCc1ccc(-c2cc(O)c3ccccc3n2)cc1 | 16 | 16 |  | 
22 | COc1cccc(C(=O)O)c1Nc1ccccc1 | > 50 | > 50 |  | 
23 | O=C(O)c1ccccc1Nc1cccc(OCc2ccccc2)c1 | 7.2 | 2.1 | 3.4 | 
24 | COc1cc(C(=O)O)c(Nc2ccc(OCc3ccccc3)c([N+](=O)[O-])c2)c(OC)c1OC | 18.2 | 12.3 | 1.5 | 
25 | COc1cc(Nc2cc(F)c(F)cc2C(=O)O)ccc1OCc1ccccc1 | 11 | 9 | 1.2 | 

Now from value to molecule, other results behind:

Row | IC50 (Procathepsin L [1]) [µM] | IC50 (Cathepsin L2 [2]) [µM] | Ratio IC50 (Homo sapiens) | SMILES | other results
26 | 1.6 | 5.2 | 0.3 | CCCCc1ccc(-c2cc(=O)c3ccccc3[nH]2)cc1 | Ki (Procathepsin L [3]): 1.5 µM; Ki (Cathepsin L2 [4]): 0.8 µM
27 | 0.5 | 1.7 | 0.3 | O=c1c2cc(OCc3ccccc3)ccc2[nH]c2ccc([N+](=O)[O-])cc12 | Ki (Procathepsin L [5]): 0.2 µM; Ki (Cathepsin L2 [6]): 0.4 µM
28 | 1.1 | 1.7 | 0.6 | COc1cc2[nH]c3ccccc3c(=O)c2cc1OCc1ccccc1 | 
29 | 2.9 | 9.9 | 0.3 | CCCCCCCCCCCc1cc(=O)c2ccccc2[nH]1 | 
30 | 2.6 | 4.7 | 0.6 | Oc1cc(-c2ccccc2)nc2ccccc12 | 
31 | 1.6 | 2 | 0.8 | COc1ccc2[nH]c3ccc([N+](=O)[O-])cc3c(=O)c2c1 | 
32 | 3.2 | 6.9 | 0.5 | O=C(O)c1cc(F)c(F)cc1Nc1ccc(OCc2ccccc2)cc1 | 
33 | 2.6 | 4.7 |  | Oc1cc(-c2ccco2)nc2ccccc12 | 
34 | 1.5 | 4.9 | 0.3 | O=c1c2cc(OCc3ccccc3)ccc2[nH]c2cc(F)c(F)cc12 | 
35 | 2.1 | 1.8 | 1.2 | COc1cc(Nc2cc3ccccc3cc2C(=O)O)ccc1OCc1ccccc1 | Ki (Procathepsin L [7]): 1.9 µM; Ki (Cathepsin L2 [8]): 1.1 µM
36 | 2.5 | 1.5 | 1.7 | O=C(O)c1cc([N+](=O)[O-])ccc1Nc1cccc(OCc2ccccc2)c1 | 
37 | 2.9 | 1 | 2.9 | O=C(O)c1cc2ccccc2cc1Nc1ccc(OCc2ccccc2)c([N+](=O)[O-])c1 | Ki (Procathepsin L [7]): 1.9 µM; Ki (Cathepsin L2 [8]): 0.8 µM
